Measured values from patent publication US20020086278A1, “CHROMOGENIC MEDIA CONTAINING BLOOD OR HEMIN” (priority 1999, published 2002).

How the values were obtained:
N. sicca 29193 [1] = test: Example 1: growth and colony color on plates surface-spread with chromogen; type: cell-based
[2] = system: Gardnerella vaginalis 14019; test: as above; type: cell-based; settings: Summary of Table I; G. vaginalis 14014
N. sicca 29193 [3] = test: Example 2: effect of incubation conditions on colony color formation; type: cell-based
S. aureus 25923 = test: as above; type: cell-based, Staphylococcus aureus
Group B Strep. 12386 = test: Example 1: growth and colony color on plates surface-spread with chromogen; type: cell-based; settings: for Growth: Group B Strep 12386
[4] = system: bacterial test strains of Example 1; test: Example 1: inhibitory effect over all test strains; type: cell-based; settings: Example 1, all test strains
S. epidermidis 12228 = test: Example 1: growth and colony color on plates surface-spread with chromogen; type: cell-based; settings: Summary of Table I; S. epidermidis 12228
[5] = system: Staphylococcus aureus 25923; test: as above; type: cell-based; settings: S. aureus 25923
[6] = system: Branhamella catarrhalis 25238; test: as above; type: cell-based; settings: for Growth: B. catt 25258
N. gonorrhoeae 35201 = test: as above; type: cell-based; settings: Summary of Table I; N. gonorrhoeae 35201
[7] = system: Streptococcus pneumoniae 6303; test: as above; type: cell-based

For 5-Br-4-Cl-3-indolyl-caprylate [X-Cap], the Color (N. sicca 29193 [1]; Substrate on Choclate II Agar, N. sicca. 29193) was “blue”, the “Substrates Producing Color” value (N. sicca 29193 [1]; Summary of Table I, N. sicca 29193) was “X-cap” and the “Substrates Producing Growth Inhibition” value [2] was “X-Cap”. For the same substance, the Colony Color (N. sicca 29193 [3]) was “blue (m)”, the Colony Color (S. aureus 25923) was “blue (l)” and the Growth (Group B Strep. 12386; Choc II) was “<<”. For the same substance, the “Substrates Producing Growth Inhibition” value (Group B Strep. 12386; Summary of Table I, Group B Strep. 12386) was “Slight inhib. w/ X-”, the Growth (Group B Strep. 12386; TSA II 5SB) was “<” and the Inhibitory effect [4] was “most inhibitory effect”. For the same substance, the “Substrates Producing Growth Inhibition” value (S. epidermidis 12228) was “X-Cap”, the Color ([5]; Choc II) was “turquoise” and the “Substrates Producing Color” value ([5]; Summary of Table I) was “X-Cap”. For the same substance, the Color ([5]; TSA II 5SB) was “turquoise”, the Color ([5]; TSA Plain) was “turquoise” and the Growth ([6]; Choc II) was “<”. For the same substance, the “Substrates Producing Growth Inhibition” value ([6]; Summary of Table I, B. catarrhalis 25238) was “X-Cap”, the Growth ([6]; TSA II 5SB) was “<” and the “Substrates Producing Growth Inhibition” value (N. gonorrhoeae 35201) was “X-Cap”. The “Substrates Producing Growth Inhibition” value ([7]; Summary of Table I, S. pneumoniae 6303) was “X-Cap” and the Growth ([7]; TSA II 5SB, S. pneu: 6303) was “<”.
